Tests used:
[1] = tested on: Staphylococcus aureus; test: Disruption of plasma membrane integrity in Staphylococcus aureus 1H assessed as extracellular ATP release at 20 uM after 15 to 120 mins by BacTiter-Glo microbial assay relative to control; format: functional
[2] = tested on: Staphylococcus aureus; test: Antibacterial activity against methicillin-resistant Staphylococcus aureus MW2 assessed as growth inhibition at 50 uM after 5 hrs by BacTiter-Glo microbial assay relative to control; format: functional
[3] = tested on: Enterococcus faecalis; test: Antibacterial activity against Enterococcus faecalis NCTC 775 assessed as growth inhibition at 50 uM after 5 hrs by BacTiter-Glo microbial assay relative to control; format: functional
[4] = tested on: Enterococcus faecalis; test: Antibacterial activity against Enterococcus faecalis NCTC 775 after 20 to 24 hrs by two-fold broth microdilution method; format: functional, organism-based
[5] = tested on: Escherichia coli; test: Antibacterial activity against Escherichia coli assessed as growth inhibition at 50 uM after 5 hrs by BacTiter-Glo microbial assay relative to control; format: functional
[6] = tested on: Staphylococcus aureus; test: Antibacterial activity against methicillin-resistant Staphylococcus aureus USA-300 after 20 to 24 hrs by two-fold broth microdilution method; format: functional, organism-based
[7] = tested on: Bacillus cereus; test: Antibacterial activity against Bacillus cereus NCTC 7464 assessed as growth inhibition at 50 uM after 5 hrs by BacTiter-Glo microbial assay relative to control; format: functional
[8] = tested on: Staphylococcus aureus; test: Antibacterial activity against methicillin-resistant Staphylococcus aureus USA-300 assessed as growth inhibition at 50 uM after 5 hrs by BacTiter-Glo microbial assay relative to control; format: functional
[9] = tested on: Pseudomonas aeruginosa; test: Antibacterial activity against Pseudomonas aeruginosa PAO1 assessed as growth inhibition at 50 uM after 5 hrs by BacTiter-Glo microbial assay relative to control; format: functional
[10] = tested on: Staphylococcus aureus; test: Antibacterial activity against Staphylococcus aureus 1H after 20 to 24 hrs by two-fold broth microdilution method; format: functional, organism-based
[11] = tested on: Staphylococcus aureus; test: Antibacterial activity against methicillin-resistant Staphylococcus aureus MW2 after 20 to 24 hrs by two-fold broth microdilution method; format: functional, organism-based
[12] = tested on: Klebsiella pneumoniae; test: Antibacterial activity against Klebsiella pneumoniae NCIB 8805 assessed as growth inhibition at 50 uM after 5 hrs by BacTiter-Glo microbial assay relative to control; format: functional
[13] = tested on: Salmonella typhimurium; test: Antibacterial activity against Salmonella typhimurium assessed as growth inhibition at 50 uM after 5 hrs by BacTiter-Glo microbial assay relative to control; format: functional; details: Salmonella enterica subsp. enterica serovar Typhimurium
[14] = tested on: Bacillus cereus; test: Antibacterial activity against Bacillus cereus NCTC 7464 after 20 to 24 hrs by two-fold broth microdilution method; format: functional, organism-based
[15] = tested on: Staphylococcus aureus; test: Antibacterial activity against penicillin-resistant Staphylococcus aureus 1H assessed as growth inhibition at 50 uM after 5 hrs by BacTiter-Glo microbial assay relative to control; format: functional
[16] = tested on: Staphylococcus aureus; test: Antibacterial activity against Staphylococcus aureus NCTC 6571 after 20 to 24 hrs by two-fold broth microdilution method; format: functional, organism-based
[17] = tested on: Staphylococcus aureus; test: Antibacterial activity against Staphylococcus aureus NCTC 6571 assessed as growth inhibition at 50 uM after 5 hrs by BacTiter-Glo microbial assay relative to control; format: functional

| Compound | fold change (FC) [1] | growth inhibition (GI) [2] [%] | growth inhibition (GI) [3] [%] | MIC [4] [µM] | growth inhibition (GI) [5] [%] | MIC [6] [µM] | growth inhibition (GI) [7] [%] | growth inhibition (GI) [8] [%] | growth inhibition (GI) [9] [%] | MIC [10] [µM] | MIC [11] [µM] | growth inhibition (GI) [12] [%] | growth inhibition (GI) [13] [%] | MIC [14] [µM] | growth inhibition (GI) [15] [%] | MIC [16] [µM] | growth inhibition (GI) [17] [%] |
| --- | --- | --- | --- | --- | --- | --- | --- | --- | --- | --- | --- | --- | --- | --- | --- | --- | --- |
| COC1=C(Br)C[C@]2(OC=C1Br)ON=C(C(=O)NCCCOc1c(Br)cc(CC[N+](C)(C)C)cc1Br)[C@@H]2O.O=C([O-])C(F)(F)F | 2 |  |  |  |  |  |  |  |  |  |  |  |  |  |  |  |  |
| GENTAMICIN |  | 93 | 77 | 25 | 87 | 3.1 | 82 | 90 | 86 | 1.6 | 1.6 | 83 | 82 | 1.6 | 89 | 0.8 | 95 |

Source: ChEMBL document CHEMBL2417452, “Psammaplysin F: a unique inhibitor of bacterial chromosomal partitioning” (Bioorg Med Chem Lett, 2013)
